The target in one series is T1, A1R (Mus musculus, UniProt Q60612).
T1 construct: To obtain the P1 fraction, cerebral cortex and spinal cord were homogenized in chilled sucrose; from tissue; host or cells: cerebral cortex and spinal cord membranes (P1 fraction) of SOD1-G93A transgenic and WT B6SJL mice
T1 sequence (Q60612 1-326): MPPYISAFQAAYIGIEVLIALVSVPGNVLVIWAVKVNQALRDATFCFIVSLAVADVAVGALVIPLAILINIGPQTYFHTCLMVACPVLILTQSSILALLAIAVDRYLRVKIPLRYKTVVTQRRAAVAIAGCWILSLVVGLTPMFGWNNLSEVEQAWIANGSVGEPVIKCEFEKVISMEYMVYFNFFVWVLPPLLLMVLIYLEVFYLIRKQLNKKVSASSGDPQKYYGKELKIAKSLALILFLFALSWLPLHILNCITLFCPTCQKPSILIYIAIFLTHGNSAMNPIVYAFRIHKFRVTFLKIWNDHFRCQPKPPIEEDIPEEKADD
It counts as binding. The note with it: mean ± SEM, read-out: DPCPX equilibrium dissociation constant (KD). On the procedure:
The radioligand-binding experiments were performed as previously described with membrane fractions (total membranes, P1 fraction). To obtain the P1 fraction, cerebral cortex and spinal cord were homogenized in chilled sucrose (pH 7.6), centrifuged at 3000 g, the pellet discarded, and the supernatant centrifuged at 14000 g (P1 fraction). The P1 fraction was then resuspended in sucrose (pH 7.6). Protein quantification was done with DC™ Protein Assay kit (Bio-Rad Laboratories, CA, USA), with bovine serum albumin (BSA) as the reference standard. […] Non-specific binding was measured in the presence of 2 μM of Xanthine Amine Congener (XAC, Tocris Bioscience, Bristol, United Kingdom), and the resulting values were subtracted from those obtained with [^3H]DPCPX to determine the specific binding and normalized for protein concentration. Results are expressed as femtomole per mg of total protein (fmol/mg).

Series [1] is described as follows: Changes in animal body weight during chronic caffeine treatment (AUC of weight change). Format: in vivo, mouse. The note with it: for Area under the curve (AUC) of change in body weight: caffeine 0.3mg/ml in drinking water from 11th to 16-18th week of age, weight change vs first day of administration (PND 72), mean ± SEM; for Weight gain compared to vehicle treatment: caffeine 0.3mg/ml in drinking water. On the procedure: (§1) During the experimental period, animals had ad libitum access to water, independently of treatment group. […] After 5–7 weeks of treatment, mice were sacrificed, cortex and spinal cord samples were removed and snap frozen in liquid nitrogen. All samples were kept at -80°C for posterior analysis.
Animal body weight was monitored throughout the chronic drug administration experiments, with animals being weighed once every 2 to 3 days. We used weight changes a proxy of the disease state, as it was described that SOD1^G93A mice show a gradual loss of weight through time, and that these correlate with other disease states indicators. We decided not to use behavioral data (eg RotaRod performance) to avoid changes in protein levels or expression due to physical exercise, which would have even more impact in SOD1^G93A mice than in WT, thus introducing an additional variable and therefore making comparisons more difficult.
Because SOD1^G93A tend to generally weight less than their WT counterparts, group comparisons of absolute weight were deemed inadequate. As such, changes in the body weight of each animal were calculated by subtracting the weight of that animal on the first day of drug administration (72nd day of life) to its weight at each subsequent time-point, with results being expressed in grams. To facilitate comparison of treatment effects, the area under the curve (AUC) of these changes in weight was obtained.

The subject of the next series is VEGFA. Kind of series: VEGFA protein levels by ELISA after chronic caffeine treatment. The note with it: for VEGFA protein levels: caffeine 0.3mg/ml in drinking water from 11 weeks, mean ± SEM. It counts as in vivo, mouse. How it is done:
(§2) Cortex and spinal cord samples were homogenized in […] (RIPA) lysis buffer (1M Tris pH 8.0, 0.5M EDTA pH 8.0, 5M NaCl, 10% NP-40, 50% Glycerol), supplemented with cOmpleteTM Mini protease inhibitor cocktail tablets (Roche, Penzberg, Germany) and centrifuged. Protein quantification was performed using the DC™ Protein Assay kit (Bio-Rad Laboratories, Hercules, CA, USA). VEGFA, VEGFR-1 and VEGFR-2 protein levels were quantified with the DuoSet® ELISA Development System Kit (R&D Systems, Abingdon, UK), according to manufacturer instructions. Assessment of VEGFB protein levels was performed with the Mouse VEGFB ELISA Kit (Thermo Scientific, Massachusetts, USA), also according to manufacturer instructions. […] To improve BDNF detection, samples were acidified with HCl 1M, until reaching approximately pH 2.6. After 10 to 20 minutes, NaOH was added to neutralize the samples to pH 7.6. Absorbances were read in a microplate reader (Microplate Reader TECAN Infinite M200, Männedorf, Switzerland) at 450nm and 540nm, with the latter being subtracted to the former with the goal of correcting for differences in plate background. Results are expressed as picograms per milligram of total protein (pg/mg).
as §1
Background: In an ELISA, binding on a coated surface is turned into a signal by an enzyme label.

In another series the test system is VEGFB. The series can be described thus: VEGFB protein levels by ELISA after chronic caffeine treatment. It counts as in vivo, mouse. The settings on record: caffeine 0.3mg/ml in drinking water from 11 weeks, mean ± SEM. On the procedure: as §2, §1
For another series, the system named is VEGFR-1. Kind of series: VEGFR-1 protein levels by ELISA after chronic caffeine treatment. It counts as in vivo, mouse. The settings on record: caffeine 0.3mg/ml in drinking water from 11 weeks, mean ± SEM. On the procedure: as §2, §1
In the next series the test system is VEGFR-2. Kind of series: VEGFR-2 protein levels by ELISA after chronic caffeine treatment. Format: in vivo, mouse. The settings on record: caffeine 0.3mg/ml in drinking water from 11 weeks, mean ± SEM. On the procedure: as §2
After 5–7 weeks of treatment, mice were sacrificed, cortex and spinal cord samples were removed and snap frozen in liquid nitrogen. All samples were kept at -80°C for posterior analysis.

The next series concerns BDNF. The series can be described thus: BDNF protein levels by ELISA after chronic caffeine treatment. The note with it: caffeine 0.3mg/ml in drinking water from 11 weeks, mean ± SEM. It counts as in vivo, mouse. How it is done: as §2, §1
Series [2] can be described thus: Water intake during chronic caffeine treatment. It counts as in vivo. The note with it: WT and SOD1^G93A mice; tap water or caffeine (0.3mg/ml); approximately 5–6 mL per day per mouse. On the procedure:
as §1

The test system of series [3] is SOD1^G93A mice. The note with it: caffeine 0.3mg/ml in drinking water from 11th week of age.
In series [4] the test system is SOD1^G93A mice. The settings on record: cited from earlier work.

Like-named read-outs stand apart in the source and are kept apart here.

As usually defined, the Kd is the constant that tells how readily two partners part at equilibrium. Take `CCCn1c(=O)c2[nH]c(C3CCCC3)nc2n(CCC)c1=O` [DPCPX, [^3H]-8-Cyclopentyl-1,3-dipropylxanyine]: the Kd on A1R (cortex, WT mice age-matched to pre-symptomatic (4–6 weeks old)) came to 3.1 ± 1.55 nM; at A1R (cortex, WT mice age-matched to symptomatic (12–14 weeks old)), 7.98 ± 1.01 nM; on A1R (cortex, pre-symptomatic SOD1^G93A mice (4–6 weeks old)), 4.97 ± 1.07 nM; on A1R (cortex, symptomatic SOD1^G93A mice (12–14 weeks old)), 4.43 ± 0.821 nM; at A1R (spinal cord, WT mice age-matched to pre-symptomatic (4–6 weeks old)), 15 ± 3.83 nM; on A1R (spinal cord, WT mice age-matched to symptomatic (12–14 weeks old)), 4.32 ± 0.924 nM. Further, the dissociation constant Kd at A1R (spinal cord, pre-symptomatic SOD1^G93A mice (4–6 weeks old)) stood at 12 ± 4.55 nM; on A1R (spinal cord, symptomatic SOD1^G93A mice (12–14 weeks old)) it was 11.1 ± 3.47 nM.
Regarding `Cn1c(=O)c2c(ncn2C)n(C)c1=O` [caffeine], the “Area under the curve (AUC) of change in body weight” value in series [1] (SOD1^G93A mice, SOD-VEH 12.90 ± 3.033) was 22.70 ±3.795; in [1] (WT mice, WT-VEH 71.20 ± 2.011) it was 83.40 ± 4.743. In addition, the “Weight gain compared to vehicle treatment” value in [1] (SOD1^G93A mice, not statistically significant (p = 0.058)) is listed as “trend towards an increase in weight gain”; in [1] (WT mice, p = 0.039), “small but statistically significant increase in weight gain”. Besides, in the series with VEGFA (cortex, WT and SOD1^G93A mice 16–18 weeks old, caffeine 0.3mg/ml in drinking water), the “Effect of caffeine upon VEGFA protein levels” value is on record as “absence of effect”. Further, the VEGFA protein levels with VEGFA (cortex, WT mice 16–18 weeks old, WT-VEH 3.62) worked out at 2.05 ± 0.324 pg/mg protein; in the series with VEGFA (spinal cord, SOD1^G93A mice 16–18 weeks old, SOD-VEH 4.151 ± 0.820), 3.743 ± 1.018 pg/mg protein; in the series with VEGFA (spinal cord, WT mice 16–18 weeks old, WT-VEH 2.798), 3.774 ± 0.451 pg/mg protein. Besides, the VEGFB protein levels in the series with VEGFB (cortex, SOD1^G93A mice 16–18 weeks old, SOD-VEH 164.7 ± 10.79) was determined as 157.8 ± 13.94 pg/mg protein; in the series on VEGFB (cortex, WT mice 16–18 weeks old, WT-VEH 166.8 ± 20.91), 170.7 ± 33.07 pg/mg protein; with VEGFB (spinal cord, SOD1^G93A mice 16–18 weeks old, SOD-VEH 545.6 ± 35.13), 545.3 ± 55.72 pg/mg protein; in the series with VEGFB (spinal cord, WT mice 16–18 weeks old, WT-VEH 366.0 ± 64.68), 366.5 ± 90.97 pg/mg protein. The VEGFR-1 protein levels worked out at 926.5 ± 89.92 pg/mg protein in the series with VEGFR-1 (cortex, SOD1^G93A mice 16–18 weeks old, SOD-VEH 905.1 ± 30.64); 1004 ± 146.9 pg/mg protein in the series on VEGFR-1 (cortex, WT mice 16–18 weeks old, WT-VEH 1078 ± 90.79); 1048 ± 115.2 pg/mg protein in the series on VEGFR-1 (spinal cord, SOD1^G93A mice 16–18 weeks old, SOD-VEH 919.3 ± 50.34). In addition, the VEGFR-2 protein levels was 50.51 ± 6.925 pg/mg protein in the series on VEGFR-2 (cortex, SOD1^G93A mice 16–18 weeks old, SOD-VEH 45.41 ± 5.938); 39.02 ± 4.077 pg/mg protein in the series with VEGFR-2 (cortex, WT mice 16–18 weeks old, WT-VEH 45.14 ± 4.019); 121 ± 40.6 pg/mg protein with VEGFR-2 (spinal cord, WT mice 16–18 weeks old, WT-VEH 108 ± 32.5). Besides, the BDNF protein levels turned out to be 13.85 ± 2.372 pg/mg protein with BDNF (cortex, SOD1^G93A mice 16–18 weeks old, SOD-VEH 29.75 ± 4.560, p = 0.042); 40.24 ± 6.342 pg/mg protein in the series on BDNF (cortex, WT mice 16–18 weeks old, WT vehicle 20.96 ± 1.403, p = 0.020); 49.10 ± 10.82 pg/mg protein with BDNF (spinal cord, SOD1^G93A mice 16–18 weeks old, SOD-VEH 19.34, p = 0.038, high variability); 14.37 ± 4.488 pg/mg protein in the series with BDNF (spinal cord, WT mice 16–18 weeks old). For the same compound, the “Water intake, difference between treatment groups” value in [2] is given as “No substantial differences”. Moreover, the “Symptoms on visual inspection” value in the series on SOD1^G93A mice [3] is recorded as “trend to symptoms aggravation”. The “Time to humane endpoint (onset of hindlimb paresis) vs vehicle treated SOD1^G93A mice” value in the series with SOD1^G93A mice [3] is on record as “slightly earlier”. Moreover, the “Effect on ALS symptoms” value with SOD1^G93A mice [4] is given as “exacerbates ALS symptoms”.

Source of the values: publication PMC9749988 (PLOS ONE, 2022).
